US6727284B2 (priority 1997, dated 2004)
“Also recorded” adds a separate entry of the source.

Assays:
[1] = Side-effects of dichloroacetate in patients; type: in vivo, human
From the text: Higher dosages are permitted.

[2] = Plasma DCA levels by HPLC in pediatric patients given bolus plus 24 h infusion after cardiopulmonary bypass; type: in vivo, human; conditions: bolus 100 mg/kg into proximal aorta, then infusion 12.5 mg/kg/hr for 24 hours, therapeutic range 0.2-1 mM, FIG. 1
Method: This example describes the use of dichloroacetate administered in a bolus followed by infusion for 24 hrs in pediatric patients after cardiopulmonary bypass.
DCA, in a bolus of 100 mg/kg of 10 mg/ml solution ([…] bolus) is injected into the proximal aorta immediately prior to discontinuing the aortic cross-clamp. Immediately thereafter, an infusion of DCA at 12.5 mg/kg/hr is initiated and run for 24 hours or longer. Based on the pharmacokinetics of DCA, this dosage regiment is designed to continuous maintain plasma levels of DCA in the therapeutic range of [0.2-1 mM]—in contrast to transient therapeutic levels.
Blood samples are collected from the indwelling lines of patients in citrate-containing tubes. These samples are centrifuged to separate the plasma and frozen. The frozen samples are later analyzed for DCA concentration by using a high performance liquid chromatography technique (HPLC). See generally Thannikkuto et al., “Dichloracetate (DCA) stimulates pyruvate dehydrogenase complex (PDC) activity in hearts of patients undergoing coronary artery bypass grafting (CABG)” Can. J. Cardiol. 10(suppl. C):130C (1994). Briefly, the analysis was performed on a lonoSpher A (250×4.6 mm L X ID) column accompanied by a guard column AX. Both of the columns were purchased from Chrompack Canada. The mobile phase used was 10^−3 M pyromellitate buffer (pH 3.8-4.0) at a flow rate of […]. […]

[3] = cited from earlier work

O=C(O)C(Cl)Cl [dichloroacetate]
side-effects [1]: does not have significant sideeffects; also recorded: some patients experience mild drowsiness | patient blood (plasma) levels of dichloroacetate [2]: continuously maintained patient blood levels of dichloroacetate in the therapeutic range | patient blood (plasma) levels of dichloroacetate ([2]; listed as dichloro acetate): maintained. at high (and therefore therapeutic) levels over a 24 hour period | half-life ([3]; in vivo): approximately 40 minutes | time blood levels stay in the therapeutic range ([3]; single bolus administration): less than one hour
